Data reported in US12397031B2, “Lonicera japonica flower water extract-containing pharmaceutical composition for preventing or treating Helicobacter pylori infection” (GREEN CROSS WELLBEING CORPORATION, priority 2018, dated 2025).

Columns and labels:
[1] = system: Helicobacter pylori (ATCC43504) strain; test: Antibacterial activity on Helicobacter pylori, paper disc clear zone; assay type: cell-based; conditions: 20 μl on 6 mm paper disc, 72 hours, pure inhibition zone
Procedure: A Helicobacter pylori (ATCC43504) strain was smeared in a Brucella Agar medium containing 10% horse serum, and cultured for 3 days in an incubator of 37° C. and 10% CO: conditions. […] The Examples and Comparative Examples were cultured for 72 hours in an incubator of 37° C. and 10% CO: conditions, and then diameters of generated clear zones were measured and diameters of pure inhibition zones removing perforated diameters were shown in Table 3.

Helicobacter pylori = test: Selective antibacterial effect on Helicobacter pylori versus Escherichia coli and Staphylococcus aureus; assay type: cell-based; conditions: under the same condition

## C=C[C@H]1[C@H](O[C@@H]2O[C@H](CO)[C@@H](O)[C@H](O)[C@H]2O)OC=C(C(=O)OC)[C@H]1CC(=O)O [Secoxyloganin, secoxyloganin]
[1]; 0.1 mg/ml
  Clear zone (mm): 5 mm
[1]; 1 mg/ml
  Clear zone (mm): 9 mm
[1]; 10 mg/ml
  Clear zone (mm): 13 mm
Helicobacter pylori
  selective antibacterial effect on Helicobacter pylori than the antibacterial effect on Escherichia coli and Staphylococcus aureus: ≥ 20 times
